Reference: patent US6555114B1, “Immunodominant human T-cell epitopes of hepatitis C virus” (Innogenetics N.V., priority 1993, dated 2003)

System: PBMC from 32 patients with chronic HCV
Assay: T cell proliferation assay ((3H)-thymidine incorporation, stimulation index) with PBMC of chronic HCV patients
Assay type: cell-based, human
Details: for LPR in αIFN responders (summary of Table 7): both αIFN responders tested; for number of patients that recognized the single peptide: 8 proliferative responders to pools 2 and/or 3 among 11 interferon-responder HCV patients; for lymphoproliferative response (LPR) to peptide pools and single peptides: IFN responder, LPR to pools 2 and/or 3
[1] = patient 626, αIFN responder (R), week 14 of αIFN therapy
[2] = patient 627, αIFN non-responder (NR), week 54 of αIFN therapy
[3] = patient 636, αIFN responder (R), week 28 of αIFN therapy
[4] = patient 637, αIFN non-responder (NR), week 45 of αIFN therapy
[5] = patient 615, pools 2 assays, single peptides 1 assay
[6] = patient 620, αIFN non-responder (NR), week 20 of αIFN therapy
[7] = patient 632, pools 8 assays, single peptides 4 assays
[8] = patient 634, pools 2 assays, single peptides 1 assay
[9] = patient 639, pools 4 assays, single peptides 2 assays
[10] = patient 618, pools 4 assays, single peptides 1 assay
[11] = patient 621, pools 4 assays, single peptides 1 assay
[12] = patient 626, pools 9 assays, single peptides 5 assays

Substance	LPR in αIFN responders (summary of Table 7)	stimulation index (SI), T-cell recognition [1]	stimulation index (SI), T-cell recognition [2]	stimulation index (SI), T-cell recognition [3]	stimulation index (SI), T-cell recognition [4]	number of patients that recognized the single peptide	lymphoproliferative response (LPR) to peptide pools and single peptides (patient 604, pools 2 assays, single peptides 1 assay)	lymphoproliferative response (LPR) to peptide pools and single peptides [5]	stimulation index (SI), T-cell recognition [6]	lymphoproliferative response (LPR) to peptide pools and single peptides [7]	LPR in αIFN non-responders (summary of Table 7) (two αIFN non-responders)	lymphoproliferative response (LPR) to peptide pools and single peptides [8]	lymphoproliferative response (LPR) to peptide pools and single peptides [9]	lymphoproliferative response (LPR) to peptide pools and single peptides [10]	lymphoproliferative response (LPR) to peptide pools and single peptides [11]	lymphoproliferative response (LPR) to peptide pools and single peptides [12]
GRTWAQPGYPWPLYGNEGCG (hepatitis C virus) [C13]	highest LPR	4.4	— (Only SI equal or greater than 3 are shown.)	6.3	— (Only SI equal or greater than 3 are shown.)											
LMGYIPLVGAPLGGAARALA (hepatitis C virus) [C23]		— (Only SI equal or greater than 3 are shown.)	— (Only SI equal or greater than 3 are shown.)	— (Only SI equal or greater than 3 are shown.)	— (Only SI equal or greater than 3 are shown.)	3	+ (significant when it induces SI's 3 in at least half of the assays performed)	+ (significant when it induces SI's 3 in at least half of the assays performed)	4.1	+ (significant when it induces SI's 3 in at least half of the assays performed)	high PLR					
Tetanus toxoid [TT, reference compound]		14.5	19.1	3.6	4.2				4.1							
PTDPRRRSRNLGKVIDTLTC (hepatitis C virus) [C19]	highest LPR	— (Only SI equal or greater than 3 are shown.)	— (Only SI equal or greater than 3 are shown.)	7.1	— (Only SI equal or greater than 3 are shown.)	3				+ (significant when it induces SI's 3 in at least half of the assays performed)		+ (significant when it induces SI's 3 in at least half of the assays performed)	+ (significant when it induces SI's 3 in at least half of the assays performed)			
GGAARALAHGVRVLEDGVNY (hepatitis C virus) [C25]	highest LPR	6	— (Only SI equal or greater than 3 are shown.)	9.7	— (Only SI equal or greater than 3 are shown.)	5			— (Only SI equal or greater than 3 are shown.)	+ (significant when it induces SI's 3 in at least half of the assays performed)			+ (significant when it induces SI's 3 in at least half of the assays performed)	+ (significant when it induces SI's 3 in at least half of the assays performed)	+ (significant when it induces SI's 3 in at least half of the assays performed)	+ (significant when it induces SI's 3 in at least half of the assays performed)
VLEDGVNYATGNLPGCSFSI (hepatitis C virus) [C27]	highest LPR	8.2	— (Only SI equal or greater than 3 are shown.)	5.8	— (Only SI equal or greater than 3 are shown.)	6		+ (significant when it induces SI's 3 in at least half of the assays performed)	— (Only SI equal or greater than 3 are shown.)	+ (significant when it induces SI's 3 in at least half of the assays performed)		+ (significant when it induces SI's 3 in at least half of the assays performed)	+ (significant when it induces SI's 3 in at least half of the assays performed)	+ (significant when it induces SI's 3 in at least half of the assays performed)	+ (significant when it induces SI's 3 in at least half of the assays performed)	+ (significant when it induces SI's 3 in at least half of the assays performed)
LYGNEGCGWAGWLLSPRGSR (hepatitis C virus) [C15]		— (Only SI equal or greater than 3 are shown.)	— (Only SI equal or greater than 3 are shown.)	— (Only SI equal or greater than 3 are shown.)	— (Only SI equal or greater than 3 are shown.)											
LPGCSFSIFLLALLSCLTVP [C29]		— (Only SI equal or greater than 3 are shown.)	— (Only SI equal or greater than 3 are shown.)	— (Only SI equal or greater than 3 are shown.)	— (Only SI equal or greater than 3 are shown.)				— (Only SI equal or greater than 3 are shown.)							
